This note sets out measurements from ChEMBL document CHEMBL1135933, “Synthesis of nitroindole derivatives with high affinity and selectivity for melatoninergic binding sites MT(3)” (J Med Chem, 2002).

The species entered for test [1] is Homo sapiens. As to the kind of experiment: Selectivity ratio of binding affinity at MT2 receptor relative to MT3 receptor.
The species entered for test [2] is Homo sapiens. As to the kind of experiment: Selectivity ratio of binding affinity at MT1 receptor relative to MT3 receptor.
Test [3] concerns the target Melatonin receptor type 1A (Homo sapiens, UniProt P48039). As to the kind of experiment: Inhibition of 2-[125I]iodomelatonin binding to human Melatonin receptor type 1A expressed in HEK293 cells. The test is classed as cell-based.
Test [4] concerns the target T1, Melatonin receptor type 1B (Homo sapiens, UniProt P49286).
T1 sequence (P49286 whole entry): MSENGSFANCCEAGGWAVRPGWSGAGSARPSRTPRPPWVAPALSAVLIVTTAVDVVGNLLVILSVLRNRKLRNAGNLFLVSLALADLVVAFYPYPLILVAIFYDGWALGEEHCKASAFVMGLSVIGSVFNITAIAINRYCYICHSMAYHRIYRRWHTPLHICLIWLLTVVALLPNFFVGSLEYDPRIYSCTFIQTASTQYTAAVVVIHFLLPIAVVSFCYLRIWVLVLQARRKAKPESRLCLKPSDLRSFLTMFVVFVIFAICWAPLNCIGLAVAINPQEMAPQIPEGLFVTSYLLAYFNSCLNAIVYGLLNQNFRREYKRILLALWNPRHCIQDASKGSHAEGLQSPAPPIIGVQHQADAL
As to the kind of experiment: Inhibition of 2-[125I]iodomelatonin binding to human Melatonin receptor type 1B expressed in HEK293 cells. The test is classed as cell-based.

Melatonin receptor type 1A, sequence (P48039 whole entry): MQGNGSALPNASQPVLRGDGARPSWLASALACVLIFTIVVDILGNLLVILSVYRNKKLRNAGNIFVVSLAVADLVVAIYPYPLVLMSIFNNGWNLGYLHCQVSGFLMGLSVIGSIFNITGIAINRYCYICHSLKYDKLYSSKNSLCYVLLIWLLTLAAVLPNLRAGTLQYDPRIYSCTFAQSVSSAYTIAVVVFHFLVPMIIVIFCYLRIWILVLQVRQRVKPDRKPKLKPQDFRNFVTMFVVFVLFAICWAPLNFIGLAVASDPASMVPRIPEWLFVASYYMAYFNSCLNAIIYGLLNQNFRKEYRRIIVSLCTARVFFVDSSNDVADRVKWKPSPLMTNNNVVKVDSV

In the case of `COc1ccc2c(c1)c(CCNC(C)=O)cn2C`, the Selectivity came to 1.1 in test [1] and 0.929 in test [2]. Besides, the inhibition constant Ki (usually the dissociation constant of the complex between target and ligand, obtained from inhibition or displacement) in test [3] came to 2.6 nM; in test [4], 3.1 nM.
Turning to `COc1ccc2[nH]c(I)c(CCNC(C)=O)c2c1[N+](=O)[O-]`, the Ki in test [3] turned out to be 19.2 nM; in test [4], 23.7 nM.
Regarding `COc1cc2c(CCNC(C)=O)c(I)n(C)c2cc1[N+](=O)[O-]`, the Ki in test [3] was determined as 1.1 nM; in test [4], 0.77 nM.
As for `COc1cc2c(CCNC(C)=O)c(I)[nH]c2cc1[N+](=O)[O-]`, the Ki in test [3] was determined as 0.3 nM. That is a sub-nanomolar value.
For `COc1cc([N+](=O)[O-])c2[nH]cc(CCNC(C)=O)c2c1`, the inhibitory constant (Ki) came to 49 nM in test [3] and 29 nM in test [4].
Regarding `COc1ccc2c(c(CCNC(C)=O)cn2C)c1[N+](=O)[O-]`, the Selectivity in test [1] came out at 625; in test [2], 27600. In addition, the results for the inhibitory constant (Ki) in test [3] and in test [4] were 8560 nM and 194 nM, respectively.
The corresponding values for `COc1ccc2[nH]cc(CCNC(C)=O)c2c1[N+](=O)[O-]` are 745, 964, 1060 nM and 820 nM.
On to `COc1ccc2c(c(CCNC(C)=O)c(I)n2C)c1[N+](=O)[O-]`, for which the results for the Ki in test [3] and in test [4] were 1880 nM and 39 nM, respectively.
For `COc1ccc2c(c1)c(CCNC(C)=O)c(I)n2C` the same measures were 0.08 nM and 0.047 nM.
In the case of `COc1cc2c(CCNC(C)=O)c[nH]c2cc1[N+](=O)[O-]`, the Ki in test [3] was 14.6 nM; in test [4] it was 5.3 nM.
